Test results reported in article PMC5084075 (ACS Central Science, 2016).
Where two headings read alike, the source gives them in different places.

Key:
in vitro [1] = experiment: in vitro; set-up: metabolic stability in mouse liver microsomes, LC-MS, NADPH, 0.4 mg/mL protein; conditions: liver microsomes, mouse liver microsomes
Experimental: (§1) The two original GSK hits (OSM-S-5 and -6) and six NN compounds were evaluated for their kinetic solubility in phosphate buffer and their metabolic stability in human liver microsomes (Table SB5, Data Sets S20 and S21).

in vitro [2] = experiment: in vitro; set-up: metabolic stability in human liver microsomes, LC-MS, NADPH, 0.4 mg/mL protein; conditions: liver microsomes, human liver microsomes
Experimental: as §1

[3] = test system: Plasmodium falciparum Pfal (strain not named in column head); experiment: microbe, parasite or virus in culture; set-up: asexual blood stage P. falciparum whole-cell growth inhibition
Experimental: To confirm the promise of the two starting points OSM-S-5 and -6, they were evaluated against 3D7 (drug-sensitive) and K1 (chloroquine resistant) strains of Plasmodium falciparum in a whole cell assay and against HEK-293 cells as a cytotoxicity marker (Table SB1, Biological Protocols; tables with the prefix “SB” may be found in the Supporting Information). Biological data may be browsed in a static data set taken as a snapshot for this paper (Data Sets S1 (Excel), S2 (SDF)), online in a database constructed through periodic batch uploads,[68] or in a “living database” to which may be added future data;[69] the latter may be visualized in a web browser[70] using an open source system that was recently deployed in the Wikipedia Chemical Structure Explorer,[71] or the data may be downloaded and visualized offline with proprietary (Figure S4)[72] or open source (Figure S5)[73] tools). The evaluation was performed in three different institutions using different assays and widely employed controls; controls are important to assess reproducibility and interassay variability[74] but also to minimize possible bias in evaluating compounds where there are pre-existing data from other researchers already in the public domain (Figure S6).[75]

[4] = read-out: 0.4 / CLint, in vitro / (mL/min/mg protein)
[5] = read-out: Protein Conc. (mg/mL): / Degradation half-life /

Question: For `Nc1ncnc2cc(-c3cccc(S(N)(=O)=O)c3)sc12` [OSM-S-106], which microsomal CLint (in vitro [1]; [4]) is on record?
Answer: 0.0471 mL/min/mg

Question: And the half-life (in vitro [1]; [5])?
Answer: 36.8 min

Question: And the microsomal CLint (in vitro [2]; [4])?
Answer: < 0.007 mL/min/mg

Question: What about the half-life (in vitro [2]; [5]) of the same compound?
Answer: > 247 min

Question: And the IC50 [3]?
Answer: 36 nM
